# Data: ChEMBL document CHEMBL1127135, “Synthesis and biological properties of 3-[()-2-(1,2,3-Thiadiazolyl)ethenyl]-substituted cephalosporins and related compounds: new oral cephalosporins” (Bioorg Med Chem Lett, 1993)
# Experiments:
# [1] = Evaluated for pharmacokinetic parameter urine recovery in rat at the dose 50 mg/kg ( 0-24 hr ); assay type: ADME, organism-based; set-up: dose 50 mg/kg; settings: read-out: UR
# [2] = Evaluated for pharmacokinetic parameter urine recovery in mouse at the dose 20 mg/kg ( 0-24 hr ); assay type: ADME, organism-based; set-up: dose 20 mg/kg; settings: read-out: UR
# [3] = Evaluated for pharmacokinetic parameter tmax in mouse at the dose 20 mg/kg; assay type: ADME, organism-based; set-up: dose 20 mg/kg; settings: in vivo
# [4] = Evaluated for pharmacokinetic parameter half-life in mouse at the dose 20 mg/kg; assay type: ADME, organism-based; set-up: dose 20 mg/kg; settings: in vivo
# [5] = Evaluated for pharmacokinetic parameter half-life in rat at the dose 50 mg/kg; assay type: ADME, organism-based; set-up: dose 50 mg/kg; settings: in vivo
# [6] = Evaluated for pharmacokinetic parameter area under curve in mouse at the dose 20 mg/kg (0-4 hr); assay type: ADME, organism-based; set-up: time < 4 hr, dose 20 mg/kg; settings: in vivo
# [7] = Evaluated for pharmacokinetic parameter Cmax in mouse at the dose 20 mg/kg; assay type: ADME, organism-based; set-up: dose 20 mg/kg; settings: in vivo
# [8] = Evaluated for pharmacokinetic parameter tmax in rabbit at the dose 20 mg/kg; assay type: ADME, organism-based, Oryctolagus cuniculus; set-up: dose 20 mg/kg; settings: in vivo
# [9] = Evaluated for pharmacokinetic parameter urine recovery in rabbit at the dose 20 mg/kg ( 0-24 hr ); assay type: ADME, organism-based, Oryctolagus cuniculus; set-up: dose 20 mg/kg; settings: read-out: UR
# [10] = Evaluated for pharmacokinetic parameter half-life in rabbit at the dose 20 mg/kg; assay type: ADME, organism-based, Oryctolagus cuniculus; set-up: dose 20 mg/kg; settings: in vivo
# [11] = Evaluated for pharmacokinetic parameter area under curve in rat at the dose 50 mg/kg ( 0-8 hr ); assay type: ADME, organism-based; set-up: time < 8 hr, dose 50 mg/kg; settings: in vivo
# [12] = Evaluated for pharmacokinetic parameter area under curve in rabbit at the dose 20 mg/kg ( 0-4 hr ); assay type: ADME, organism-based, Oryctolagus cuniculus; set-up: time < 4 hr, dose 20 mg/kg; settings: in vivo
# [13] = Evaluated for pharmacokinetic parameter Cmax in rabbit at the dose 20 mg/kg; assay type: ADME, organism-based, Oryctolagus cuniculus; set-up: dose 20 mg/kg; settings: in vivo
# [14] = Evaluated for pharmacokinetic parameter Cmax in rat at the dose 50 mg/kg; assay type: ADME, organism-based; set-up: dose 50 mg/kg; settings: in vivo
# [15] = Evaluated for pharmacokinetic parameter tmax in rat at the dose 50 mg/kg; assay type: ADME, organism-based; set-up: dose 50 mg/kg; settings: in vivo
# Enterococcus hirae = assay: Antibacterial activity against Enterococcus hirae ATCC 8043 was determined; assay type: functional
# Escherichia coli [16] = assay: Antibacterial activity against Escherichia coli ATCC 25922 was determined; assay type: functional
# Escherichia coli [17] = assay: Antibacterial activity against Escherichia coli NIHJ JC-2 was determined; assay type: functional
# Klebsiella pneumoniae = assay: Antibacterial activity against Klebsiella pneumoniae IFO 3317 was determined; assay type: functional
# Morganella morganii = assay: Antibacterial activity against Morganella morganii IID 602 was determined; assay type: functional
# Proteus mirabilis = assay: Antibacterial activity against Proteus mirabilis IFO3849 was determined; assay type: functional
# Providencia rettgeri = assay: Antibacterial activity against Providencia rettgeri IFO3850 was determined; assay type: functional
# Staphylococcus aureus [18] = assay: Antibacterial activity against Staphylococcus aureus 209P-JC was determined; assay type: functional
# Serratia marcescens = assay: Antibacterial activity against Serratia marcescens IID 618 was determined; assay type: functional
# [19] = test system: Staphylococcus epidermidis; assay: Antibacterial activity against Staphylococcus epidermidis IID 866 was determined; assay type: functional
# Enterobacter cloacae = assay: Antibacterial activity against Enterobacter cloacae 963 was determined; assay type: functional
# Klebsiella aerogenes = assay: Antibacterial activity against Enterobacter aerogenes IFO 13048 was determined; assay type: functional
# Moraxella catarrhalis = assay: Antibacterial activity against M(B). catarrhalis ATCC 25238 was determined; assay type: functional
# Micrococcus luteus = assay: Antibacterial activity against Micrococcus luteus ATCC 9341 was determined; assay type: functional
# Proteus vulgaris = assay: Antibacterial activity against Proteus vulgaris HX-19 was determined; assay type: functional
# Pseudomonas aeruginosa = assay: Antibacterial activity against Pseudomonas aeruginosa NCTC 10490 was determined; assay type: functional
# Staphylococcus aureus [20] = assay: Antibacterial activity against Staphylococcus aureus ATCC 25923 was determined; assay type: functional
# Staphylococcus aureus [21] = assay: Antibacterial activity against Staphylococcus aureus Smith was determined; assay type: functional
compound,measurement,setting,value
CC(C)(C)C(=O)OCOC(=O)C1=C(/C=C\c2csnn2)CSC2C(NC(=O)/C(=N\O)c3csc(N)n3)C(=O)N12 (stereo not drawn),dose excreted,[1],9.5%
same,dose excreted,[2],42.8%
same,Tmax,[3],0.5 h
same,half-life,[4],2.7 h
same,half-life,[5],1.8 h
same,AUC at 4 h,[6],62000 ng·h/mL
same,Cmax,[7],20500 ng/mL
same,Tmax,[8],1 h
same,dose excreted,[9],17.2%
same,half-life,[10],2.3 h
same,AUC at 8 h,[11],37900 ng·h/mL
same,AUC at 4 h,[12],10500 ng·h/mL
same,Cmax,[13],2400 ng/mL
same,Cmax,[14],15200 ng/mL
same,Tmax,[15],1 h
Cc1nnsc1/C=C\C1=C(C(=O)O)N2C(=O)C(NC(=O)/C(=N\O)c3csc(N)n3)C2SC1 (stereo not drawn),MIC,Enterococcus hirae,25 µg/mL
same,MIC,Escherichia coli [16],0.2 µg/mL
same,MIC,Escherichia coli [17],0.1 µg/mL
same,MIC,Klebsiella pneumoniae,0.05 µg/mL
same,MIC,Morganella morganii,0.05 µg/mL
same,MIC,Proteus mirabilis,0.1 µg/mL
same,MIC,Providencia rettgeri,≤ 0.006 µg/mL
same,MIC,Staphylococcus aureus [18],0.2 µg/mL
same,MIC,Serratia marcescens,0.78 µg/mL
same,MIC,[19],0.2 µg/mL
Cc1snnc1/C=C\C1=C(C(=O)O)N2C(=O)C(NC(=O)/C(=N\O)c3csc(N)n3)C2SC1 (stereo not drawn),MIC,Enterococcus hirae,25 µg/mL
same,MIC,Escherichia coli [16],0.2 µg/mL
same,MIC,Escherichia coli [17],0.39 µg/mL
same,MIC,Enterobacter cloacae,0.39 µg/mL
same,MIC,Klebsiella aerogenes,0.78 µg/mL
same,MIC,Klebsiella pneumoniae,0.025 µg/mL
same,MIC,Moraxella catarrhalis,0.05 µg/mL
same,MIC,Micrococcus luteus,0.025 µg/mL
same,MIC,Morganella morganii,0.05 µg/mL
same,MIC,Proteus vulgaris,0.05 µg/mL
same,MIC,Proteus mirabilis,0.39 µg/mL
same,MIC,Pseudomonas aeruginosa,> 100 µg/mL
same,MIC,Providencia rettgeri,≤ 0.006 µg/mL
same,MIC,Staphylococcus aureus [18],0.2 µg/mL
same,MIC,Staphylococcus aureus [20],0.39 µg/mL
same,MIC,Serratia marcescens,0.78 µg/mL
same,MIC,[19],0.39 µg/mL
same,MIC,Staphylococcus aureus [21],0.2 µg/mL
